Measured values published in PMC8875555, “Discovery of Kinase and Carbonic Anhydrase Dual Inhibitors by Machine Learning Classification and Experiments” (Pharmaceuticals, 2022).
Where “and” joins values, the source holds several entries; their conditions need not be identical. Identical values can stand only once.

Experiments:
CA IX = CA IX (Homo sapiens, UniProt Q16790); assay: CA enzyme inhibition with 4-nitrophenyl acetate as substrate; format: biochemical; conditions: converted from IC50 by Cheng-Prusoff; 5 nM enzyme, 1 mM substrate, 0.01% Triton X-100, 37 °C
Description: (§1) All the reagents used for the biochemical experiments for enzyme inhibitions were bought from Cayman (Ann Harbor, MI, USA), Sigma–Aldrich (St. Louis, MO, USA), Sino Biological (Beijing, China), or Tokyo Chemical Industry (Tokyo, Japan). Inhibitory activities of small molecules on CAs were measured using 4-nitrophenyl acetate as a substrate. […] The changes were measured at 96-well microplates using Epoch2 from BioTek (Winooski, VT, USA). The slope in a time-dependent measurement was calculated by linear regression and interpreted as the quantified activity. Each 200 μL reaction solution comprised 5 nM enzyme and 1 mM substrate buffered using phosphate-buffered saline containing 5% dimethyl sulfoxide and 0.01% (w/v) Triton X-100 under the absence or the presence of inhibitor. […] The substrate-only solution was used as a control to consider autohydrolysis of the substrate. The value of IC50 was converted into Ki using the Cheng–Prusoff equation [66].

CA XII = CA XII (Homo sapiens, UniProt O43570); assay: as above; format: biochemical
Description: as §1

CA I [1] = target: T1, CA I (Homo sapiens, UniProt P00915); assay: as above; format: biochemical; conditions: converted from IC50 by Cheng-Prusoff; 5 nM enzyme, 1 mM substrate, 0.01% Triton X-100, 37 °C
Description: as §1

CA II [2] = target: T2, CA II (Homo sapiens, UniProt P00918); assay: as above; format: biochemical; conditions: converted from IC50 by Cheng-Prusoff; 5 nM enzyme, 1 mM substrate, 0.01% Triton X-100, 37 °C
Description: as §1

CA I [3] = target: T1, CA I; assay: Differential scanning fluorimetry (DSF); format: binding; conditions: 200 µM inhibitor; for CA I ΔTm: shift from apo CA I
Description: (§2) The biophysical experiments involved the binding of small molecules to CA I or CA II, which were quantified using the Tm of DSF. The profile was generated by CFX-connect […] (BioRad, Hercules, CA, USA). The solution contained 5× SYPRO® Orange and 0.5 µM recombinant human CA I or CA II in the absence or presence of 200 µM inhibitor. […] The patterns were nonlinearly fitted to the Boltzmann equation to calculate Tm. […] Nonlinear curve fittings for Ki in enzyme assay and Tm in DSF were performed using MATLAB (MathWorks, Natick, MA, USA).

CA II [4] = target: T2, CA II; assay: Differential scanning fluorimetry (DSF); format: binding; conditions: 200 µM inhibitor; for CA II ΔTm: shift from apo CA II
Description: as §2

SYK = tested on: SYK; parameters: method as in PMID 12941345; conditions: cited from earlier work
CDK2 = tested on: CDK2; parameters: method as in PMID 15974571; conditions: cited from earlier work
MST1 = tested on: MST1; parameters: method as in PMID 27535619; conditions: cited from earlier work
MST2 = tested on: MST2; parameters: method as in PMID 27535619; conditions: cited from earlier work

Sequence of CA XII (O43570 25-354): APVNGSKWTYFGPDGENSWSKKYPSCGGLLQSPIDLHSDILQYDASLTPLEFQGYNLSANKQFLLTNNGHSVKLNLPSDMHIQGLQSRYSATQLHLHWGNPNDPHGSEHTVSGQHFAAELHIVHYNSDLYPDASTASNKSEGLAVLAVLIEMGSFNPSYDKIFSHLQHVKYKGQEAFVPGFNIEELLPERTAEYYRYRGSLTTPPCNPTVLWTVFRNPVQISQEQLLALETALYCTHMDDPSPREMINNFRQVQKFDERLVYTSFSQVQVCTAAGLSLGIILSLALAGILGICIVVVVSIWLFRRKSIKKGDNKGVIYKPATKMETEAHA
T1 sequence (P00915 whole entry): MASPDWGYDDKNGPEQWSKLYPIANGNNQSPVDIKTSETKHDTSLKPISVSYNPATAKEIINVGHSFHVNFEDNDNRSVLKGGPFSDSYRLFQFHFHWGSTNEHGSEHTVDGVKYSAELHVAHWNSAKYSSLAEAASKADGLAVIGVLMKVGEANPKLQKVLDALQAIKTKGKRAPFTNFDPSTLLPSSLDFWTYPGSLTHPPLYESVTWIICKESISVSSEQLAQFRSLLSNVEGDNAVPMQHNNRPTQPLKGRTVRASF

In the case of `Cn1cc(/C=C2\C(=O)Nc3ccc(S(N)(=O)=O)cc32)c2ccccc21` [Compound 6046], the Ki (CA IX) is reported as 2700 ± 300 nM, the Ki (CA XII) is reported as 13000 ± 4000 nM and the Ki (CA I [1]) is reported as 60000 ± 9000 nM. For the same molecule, the Ki (CA II [2]) was 16000 ± 5000 nM, the “CA I ΔTm” value (CA I [3]) was 0.1 degrees and the “CA II ΔTm” value (CA II [4]) was 0.2 degrees. The IC50 (SYK) was […].
In the case of `Nc1nc(Nc2ccc(S(N)(=O)=O)cc2)nn1C(=S)Nc1c(F)cccc1F` [Compound 5946, CDK1/2 inhibitor III], the Ki (CA IX) is reported as 100 ± 28 nM, the Ki (CA XII) is reported as 254 ± 40 nM and the Ki (CA I [1]) is reported as 258 ± 58 nM. The Ki (CA II [2]) was 149 ± 21 nM, the “CA II ΔTm” value (CA II [4]) was 3.2 degrees and the IC50 (CDK2) was 0.5 nM.
In the case of `Cc1ccc(Nc2nccc(N(C)c3ccc4c(C)n(C)nc4c3)n2)cc1S(N)(=O)=O` [Compound 5698, pazopanib], the Ki (CA IX) is reported as 1700 ± 500 nM, the Ki (CA XII) is reported as 800 ± 300 nM and the Ki (CA I [1]) is reported as 67 ± 10 nM. It also gave a Ki (CA II [2]) of 242 ± 32 nM.
For `CN1C(=O)c2sccc2N(C)c2nc(Nc3ccc(S(N)(=O)=O)cc3)ncc21` [XMU-MP-1], the IC50 (MST1) is listed as 71 nM, the Ki (CA IX) is listed as ~30 nM and 31 nM and the Ki (CA XII) is listed as 1000 nM. The “weaker in inhibiting CA XII” value (CA XII; compared with CA I, CA II and CA IX) was “approximately 30 fold”, the Ki (CA I [1]) was ~30 nM and 32 nM and the Ki (CA II [2]) was ~30 nM and 24 nM. For the same molecule, the “CA I Tm” value (CA I [3]; 0.5 µM CA I, enzyme alone 56.2 ± 0.1) was 61.9±0.2 °C, the “CA I ΔTm” value (CA I [3]) was 5.7 degrees and the “CA II Tm” value (CA II [4]; 0.5 µM CA II, enzyme alone 52.6 ± 0.2) was 59.9±0.2 °C. For the same molecule, the “CA II ΔTm” value (CA II [4]) was 7.3 degrees and the IC50 (MST2) was 31 nM.
In the case of `Nc1nc(Nc2ccc(S(N)(=O)=O)cc2)nn1C(=O)c1c(F)cccc1F` [Compound 5932, JNJ-7706621], the Ki (CA IX) is reported as 220 ± 32 nM, the Ki (CA XII) is reported as 1200 ± 200 nM and the Ki (CA I [1]) is reported as 207 ± 66 nM. The Ki (CA II [2]) was 123 ± 16 nM, the “CA I ΔTm” value (CA I [3]) was 2.0 degrees and the “CA II ΔTm” value (CA II [4]) was 4.4 degrees. The IC50 (CDK2) was […].
